One experiment relates to H1299. The experiment can be described thus: Caspase activation assay in H1299 cells. In kind it is cell-based. Conditions: Homo sapiens, NCI-H1299, 24 h incubation, read-out: Caspase activation potency EC50 H1299. As for the experimental part:
(§1) Human breast cancer cell lines T-47D and ZR-75-1, human colon cancer cell line DLD-1 and human non-small cell lung cancer cell line H1299 were grown according to media component mixtures designated by American Type Culture Collection+10% FCS (Invitrogen Corporation), in a 5% CO2−95% humidity incubator at 37° C. T-47D and ZR-75-1 cells were maintained at a cell density between 30 and 80% confluency at a cell density of 0.1 to 0.6×10^6 cells/mL. Cells were harvested at 600×g and resuspended at 0.65×10^6 cells/mL into appropriate media+10% FCS. An aliquot of […] of cells was added to a well of a 96-well microtiter plate containing 5 μl of a 10% DMSO in RPMI-1640 media solution containing about 0.16 to 10 μM of 2,7,8-triamino-4-(3-bromo-4,5-dimethoxy-phenyl)-3-cyano-4H-chromene (1) or other test compounds (0.016 to 1 μM final). An aliquot of 45 μl of cells was added to a well of a 96-well microtiter plate containing 5 μl of a 10% DMSO in RPMI-1640 media solution without test compound as the control sample. The samples were mixed by agitation and then incubated at 37° C. for 24 h in a 5% CO2−95% humidity incubator. After incubation, the samples were removed from the incubator and 50 μl of a solution containing 20 μM of N-(Ac-DEVD)-N′-ethoxycarbonyl-R110 (SEQ ID No:1) fluorogenic substrate (Cytovia, Inc.; U.S. Pat. No. 6,335,429), 20% sucrose (Sigma), 20 mM DTT (Sigma), 200 mM NaCl (Sigma), 40 mM Na PIPES buffer pH 7.2 (Sigma), and 500 μg/ml lysolecithin (Calbiochem) was added. The samples were mixed by agitation and incubated at room temperature. Using a fluorescent plate reader (Model 1420 Wallac Instruments), an initial reading (T=0) was made about 1-2 min after addition of the substrate solution, employing excitation at 485 nm and emission at 530 nm, to determine the background fluorescence of the control sample. After the 3 h incubation, the samples were read for fluorescence as above (T=3 h).
(§2) The Relative Fluorescence Unit values (RFU) were used to calculate the sample readings as follows: RFU(T=3h)−Control RFU(T=0)=Net RFU(T=3h)
(§3) The activity of caspase cascade activation was determined by the ratio of the net RFU value for 2,7,8-triamino-4-(3-bromo-4,5-dimethoxy-phenyl)-3-cyano-4H-chromene or other test compound to that of control samples. The EC50 (nM) was determined by a sigmoidal dose-response calculation (Prism 2.0, GraphPad Software Inc.).

In experiment [1] the test system is MX1 human breast cancer tumors. The experiment can be described thus: In vivo antitumor activity in MX-1 model, combination with cisplatin and doxorubicin. Set-up: species or system mice. Conditions: 1R 40 mg/kg, IV. As for the experimental part: MX1 human breast cancer tumors were obtained from the NCI-FCRDC and maintained as tumors in nude mice. Tumor bits were implanted with a trocar into the right mammary area of female nu/nu mice and allowed to grow to an average size of 200-250 mg, about 12 days after being implanted. Animals were randomized and assigned to study groups of 8-10 animals/group. Body weight were determined and tumor size were measured by calipers and converted to volume by the standard formula of Vol=L×W^2/2. Compound 1R was formulated in 7% PEG400/9% Tween80/84% D5W and administered IV via the tail vein at the indicated days and doses. Day 1 of the study was the first day of treatment. Survival time was the number of days for the tumor to reach 1000 mg or death, whichever occurred earliest. Median survival is the median for the group.
Mice implanted with MX1 human breast cancer tumors were treated with compound 1R as described in EXAMPLE 11. Cisplatin was administered IP whereas doxorubicin was administered IV at the indicated doses.

The next experiment concerns HCT116. Description: Inhibition of cell proliferation (GI50), HCT116. The class given is cell-based. As to conditions: Homo sapiens, HCT-116; HCT116 cells, 72 h, CellTiter-Glo. The method, then: Human breast cancer cells MX-1 and MDAMB435, hepatocarcinoma cells SNU398, colon cancer cells HCT116 and HeLa cells were grown and harvested as in Example 7. An aliquot of […] of cells (4.4×10^4 cells/mL) was added to a well of a 96-well microtiter plate containing 5 μL of a 10% DMSO in RPMI-1640 media solution containing 10 nM to 100 μM of R(−)-2,7,8-triamino-4-(3-bromo-4,5-dimethoxy-phenyl)-3-cyano-4H-chromene (1 nM to 10 μM final). An aliquot of 45 μL of cells was added to a well of a 96-well microtiter plate containing 5 μL of a 10% DMSO in RPMI-1640 media solution without compound as the control sample for maximal cell proliferation (LMax). The samples were mixed by agitation and then incubated at 37° C. for 72 h in a 5% CO2−95% humidity incubator. After incubation, the samples were removed from the incubator and 25 μL of CellTiter-Glo™ reagent (Promega) was added. The samples were mixed by agitation and incubated at room temperature for 10-15 min. Plates were then read using a luminescent plate reader (Model SPECTRAfluor Plus, Tecan) to give Ltest values.
Baseline for GI50 (dose for 50% inhibition of cell proliferation) of initial cell numbers was determined by adding an aliquot of 45 μL of cells or 45 μL of media, respectively, to wells of a 96-well microtiter plate containing 5 μL of a 10% DMSO in RPMI-1640 media solution. […]
In general terms: In ATP-based viability assays light output follows the ATP content of the culture.

The subject of a further experiment is T-47D. The experiment can be described thus: Caspase activation assay in T-47D cells. The class given is cell-based. Conditions: Homo sapiens; T47D cells, 24 h incubation; read-out: Caspase activation potency EC50 T47D. The method, then:
as §1, §2, §3

Where [2] appears, read: day 1, 2, 3 (QD × 3), first study (cisplatin day 2).
Where [3] appears, read: day 1, 8, 15 (QW × 3), second study (cisplatin day 2, 9).
Where [4] appears, read: day 1, 8, 15 (QW × 3), third study (doxorubicin).

SMILES strings stand for the structures.

Usually EC50 stands for the concentration needed to bring the measured effect to its halfway point. In general, GI50 refers to the concentration at which growth is held to half of that of the control. Regarding `COc1cc([C@H]2C(C#N)=C(N)Oc3c2ccc(N)c3N)cc(Br)c1OC` [Compound 1R, R(−)-2,7,8-triamino-4-(3-bromo-4,5-dimethoxy-phenyl)-3-cyano-4H-chromene], the EC50 with H1299 stood at 62 nM; in the experiment with T-47D, 21 nM. Besides, the Median survival amounted to 38.5 days in experiment [1] (setting [2]), 35 days in experiment [1] (setting [3]) and 40 days in experiment [1] (setting [4]). The results for the “Number of tumor free mice at day 91” value in experiment [1] (setting [2]), in experiment [1] (setting [3]) and in experiment [1] (setting [4]) were 4 of 9, 1 of 7 and 1 of 8, respectively. For the same compound, the GI50 in the experiment with HCT116 came out at 19 nM.
